In patent publication US10059704B2, “1,4-disubstituted 1,2,3-triazoles, methods for preparing same, and diagnostic and therapeutic uses thereof” (CENTRE NATIONAL DE LA RECHERCHE SCIENTIFIQUE (C.N.R.S.), priority 2011, dated 2018):
Where two headings read alike, the source gives them in different places.

Tests used:
nicotinic receptors Rα7 = nicotinic receptors Rα7 (Rattus norvegicus, UniProt Q05941); experiment: biochemical; assay type: binding
[1] = Solubility (solvents listed in table); details: solvents in which the compound is soluble, in words
[2] = rat frontal cortex membranes, [125I]α-bungarotoxin 2 nM, 22° C., 3 hours, Ki calculated from IC50 (Cheng and Prussof), read-out: Activity on Rα7

Sequence of nicotinic receptors Rα7 (Q05941 23-502): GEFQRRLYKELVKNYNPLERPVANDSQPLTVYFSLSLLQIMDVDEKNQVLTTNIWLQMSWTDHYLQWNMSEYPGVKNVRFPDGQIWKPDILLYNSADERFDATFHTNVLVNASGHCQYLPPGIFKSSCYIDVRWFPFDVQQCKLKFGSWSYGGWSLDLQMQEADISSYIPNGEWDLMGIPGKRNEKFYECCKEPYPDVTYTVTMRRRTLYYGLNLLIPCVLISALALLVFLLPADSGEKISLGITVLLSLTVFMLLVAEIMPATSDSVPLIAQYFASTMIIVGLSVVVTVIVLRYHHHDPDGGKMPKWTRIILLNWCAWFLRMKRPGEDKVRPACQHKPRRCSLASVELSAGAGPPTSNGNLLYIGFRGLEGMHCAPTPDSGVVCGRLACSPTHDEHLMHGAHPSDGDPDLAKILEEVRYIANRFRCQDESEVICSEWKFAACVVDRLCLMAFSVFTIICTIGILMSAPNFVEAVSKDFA

Structure (SMILES): CN1[C@@H]2CC[C@H]1C[C@@H](n1cc(-c3ccccc3)nn1)C2 [Compound 16, Endo-3-(4-phenyl-1H-1,2,3-triazol-1-yl)tropane]
- Ki (nicotinic receptors Rα7): 168 ± 68 nM
- melting point: 135 °C
- Solubility [1]: M = 268.36 g/mol C16H20N4 CHCl3 − DMSO

Structure (SMILES): CN1[C@@H]2CC[C@H]1C[C@@H](n1cc(-c3ccc(F)cc3)nn1)C2 [Compound 17, Endo-3(4-(4-fluorophenyl)-1H-1,2,3-triazol-1-yl)tropane]
- Ki (nicotinic receptors Rα7): 210 ± 31 nM
- melting point: 254 °C
- Solubility [1]: M = 286.35 g/mol C16H19FN4 CHCl3 − DMSO

Structure (SMILES): COc1ccc(-c2cn([C@H]3C[C@H]4CC[C@@H](C3)N4C)nn2)cc1 [Compound 19, Endo-3-(4-(4-methoxyphenyl)-1H-1,2,3-triazol-1-yl)tropane]
- Ki (nicotinic receptors Rα7): 283 ± 76 nM
- melting point: 118 °C
- Solubility [1]: M = 298.38 g/mol C17H22N4O CHCl3 − DMSO

Structure (SMILES): CN1[C@@H]2CC[C@H]1C[C@@H](n1cc(-c3cccc(F)c3)nn1)C2 [Compound 22, Endo-3-(4-(3-fluorophenyl)-1H-1,2,3-triazol-1-yl)tropane]
- Ki (nicotinic receptors Rα7): 16 ± 9 nM
- melting point: 124 °C
- Solubility [1]: M = 286.35 g/mol C16H19FN4 CHCl3 − DMSO

Structure (SMILES): CN1[C@@H]2CC[C@H]1C[C@@H](n1cc(-c3ccc(Cl)c(Cl)c3)nn1)C2 [Compound 24, Endo-3-(4-(3,4-dichlorophenyl)-1H-1,2,3-triazol-1-yl)tropane]
- Ki (nicotinic receptors Rα7): 110 ± 36 nM
- melting point: 136 °C
- Solubility [1]: M = 337.25 g/mol C16H18Cl2N4 CHCl3 − DMSO

Structure (SMILES): CN1[C@@H]2CC[C@H]1C[C@@H](n1cc(-c3ccc4sccc4c3)nn1)C2 [Compound 25, Endo-3-(4-(1-Benzothiophen-5-yl)-1H-1,2,3-triazol-1-yl)tropane]
- Ki (nicotinic receptors Rα7): 14 ± 4 nM
- melting point: 163 °C
- Solubility [1]: M = 324.44 g/mol C18H20N4S CHCl3 − DMSO

Structure (SMILES): CN1[C@@H]2CC[C@H]1C[C@@H](n1cc(-c3ccc4occc4c3)nn1)C2 [Compound 26, Endo-3-(4-(1-benzofuran-5-yl)-1H-1,2,3-triazol-1-yl)topane]
- Ki (nicotinic receptors Rα7): 13 ± 5 nM
- melting point: 104 °C
- Solubility [1]: M = 308.38 g/mol C18H20N4O CHCl3 − DMSO

Structure (SMILES): CN1[C@@H]2CC[C@H]1C[C@@H](n1cc(-c3ccc(Br)s3)nn1)C2 [Compound 27, Endo-3-(4-(5-bromothiophen-2-yl)-1H-1,2,3-triazol-1-yl)tropane]
- Ki (nicotinic receptors Rα7): 275 ± 43 nM
- melting point: 138 °C
- Solubility [1]: M = 353.28 g/mol C14H17BrN4S CHCl3 − DMSO

Structure (SMILES): COc1ccc(-c2cn([C@H]3CN4CCC3CC4)nn2)cc1 [Compound 46, (R)-3-(4-(4-Methoxyphenyl)-1H-1,2,3-triazol-1-yl)quinuclidine]
- melting point: 122 °C
- Solubility [1]: M = 284.36 g/mol C16H20N4O DMSO

Structure (SMILES): OCc1cccc(-c2coc(-c3cn([C@H]4CN5CCC4CC5)nn3)c2)c1 [Compound 92, (R)-[3-[5-[1-[quinuclidin-3-yl]-1H-1,2,3-triazol-4-yl]-3-furyl]phenyl]methanol]
- Ki (nicotinic receptors Rα7): 115 nM
- melting point: 212 °C

Structure (SMILES): OCc1ccc(-c2ccc(-c3cn([C@H]4CN5CCC4CC5)nn3)cc2)cc1 [Compound 93, (R)-[4-[4-[1-[quinuclidin-3-yl]-1H-1,2,3-triazol-4-yl]phenyl]phenyl]methanol]
- Ki (nicotinic receptors Rα7): 137 nM
- melting point: 250 °C

Structure (SMILES): OCc1cccc(-c2ccc(-c3cn([C@H]4CN5CCC4CC5)nn3)cc2)c1 [Compound 95, (R)-[3-[4-[1-[quinuclidin-3-yl]-1H-1,2,3-triazol-4-yl]phenyl]phenyl]methanol]
- Ki (nicotinic receptors Rα7; [2]): 100 nM
- melting point: 207 °C

Structure (SMILES): c1csc(-c2ccc(-c3cn([C@H]4CN5CCC4CC5)nn3)cc2)c1 [Compound 96, (R)-3-[4-[4-(2-thienyl)phenyl]-1H-1,2,3-triazol-1-yl]quinuclidine]
- Ki (nicotinic receptors Rα7): 135 nM
- melting point: 214 °C

Structure (SMILES): O=Cc1ccc(-c2ccc(-c3cn([C@H]4CN5CCC4CC5)nn3)cc2)s1 [Compound 97, (R)-5-[4-[1-[quinuclidin-3-yl]-1H-1,2,3-triazol-4-yl]phenyl]thiophene-2-carbaldehyde]
- Ki (nicotinic receptors Rα7): 90 to 120 nM
- melting point: 228 °C

Structure (SMILES): OCc1ccc(-c2cccc(-c3cn([C@H]4CN5CCC4CC5)nn3)c2)cc1 [Compound 98, (R)-[4-[3-[1-[quinuclidin-3-yl]-1H-1,2,3-triazol-4-yl]phenyl]phenyl]methanol]
- Ki (nicotinic receptors Rα7): 105 nM
- melting point: 214 °C

Structure (SMILES): OCc1cccc(-c2cccc(-c3cn([C@H]4CN5CCC4CC5)nn3)c2)c1 [Compound 99, (R)-[3-[3-[1-[quinuclidin-3-yl]-1H-1,2,3-triazol-4-yl]phenyl]phenyl]methanol]
- Ki (nicotinic receptors Rα7; [2]): 1.4 nM
- melting point: 201 °C

Structure (SMILES): Fc1ccc(-c2cccc(-c3cn([C@H]4CN5CCC4CC5)nn3)c2)cn1 [Compound 100, (R)-3-[4-[3-(6-fluoro-3-pyridyl)phenyl]-1H-1,2,3-triazol-1-yl]quinuclidine]
- Ki (nicotinic receptors Rα7; [2]): 16 nM
- melting point: 164 °C

Structure (SMILES): O=Cc1ccc(-c2cccc(-c3cn([C@H]4CN5CCC4CC5)nn3)c2)s1 [Compound 101, (R)-5-[3-[1-[quinuclidin-3-yl]-1H-1,2,3-triazol-4-yl]phenyl]thiophene-2-carbaldehyde]
- Ki (nicotinic receptors Rα7): 7 nM
- melting point: 150 °C

Structure (SMILES): c1cc(-c2ccc(-c3cn([C@H]4CN5CCC4CC5)nn3)s2)ccc1CN1CCOCC1 [Compound 102]
- Ki (nicotinic receptors Rα7; [2]): 0.9 nM
- melting point: 222 °C

Structure (SMILES): c1cc(-c2ccc(-c3cn([C@H]4CN5CCC4CC5)nn3)s2)ccc1CN1CCCCC1 [Compound 103, (R)-3-[4-[5-[4-(1-piperidylmethyl)phenyl]-2-thienyl]-1H-1,2,3-triazol-1-yl]quinuclidine]
- Ki (nicotinic receptors Rα7; [2]): 0.3 nM
- melting point: 230 °C

Structure (SMILES): CN1CCN(Cc2ccc(-c3ccc(-c4cn([C@H]5CN6CCC5CC6)nn4)s3)cc2)CC1 [Compound 104, (R)-3-[4-[5-[4-[(4-methylpiperazin-1-yl)methyl]phenyl]-2-thienyl]-1H-1,2,3-triazol-1-yl]quinuclidine]
- Ki (nicotinic receptors Rα7; [2]): 0.3 nM
- melting point: 214 °C

Structure (SMILES): COC(=O)c1ccc(-c2ccc(-c3cn([C@H]4CN5CCC4CC5)nn3)s2)cc1F [Compound 105, Methyl-2-fluoro-4-[5-[1-[(3R)-quinuclidin-3-yl]-1H-1,2,3-triazol-4-yl]-2-thienyl]benzoate]
- Ki (nicotinic receptors Rα7): 85 nM
- melting point: 250 °C

Structure (SMILES): FCc1ccc(-c2ccc(-c3cn([C@H]4CN5CCC4CC5)nn3)s2)cc1 [Compound 112, (R)-3-[4-[5-[4-(fluoromethyl)phenyl]-2-thienyl]-1H-1,2,3-triazol-1-yl]quinuclidine]
- Ki (nicotinic receptors Rα7; [2]): 5 nM
- melting point: 199 °C

Structure (SMILES): OCc1ccc(-c2ccc(-c3cn([C@H]4CN5CCC4CC5)nn3)cc2)s1 [Compound 114, (R)-[5-[4-[1-[quinuclidin-3-yl]-1H-1,2,3-triazol-4-yl]phenyl]-2-thienyl]methanol]
- Ki (nicotinic receptors Rα7): 160 nM
- melting point: 234 °C

Structure (SMILES): OCc1ccc(-c2cccc(-c3cn([C@H]4CN5CCC4CC5)nn3)c2)s1 [Compound 115, (R)-[5-[3-[1-[quinuclidin-3-yl]-1H-1,2,3-triazol-4-yl]phenyl]-2-thienyl]-methanol]
- Ki (nicotinic receptors Rα7): 0.5 nM
- melting point: 176 °C
